Measurements from patent publication US5324516A, “Galenic composition for decreasing blood alcohol concentration” (priority 1991, dated 1994).

Experiment: Test 3: effect of each of primary ingredients on blood ethanol concentration in rats
Format: in vivo, rat
Conditions: pueraria flower 0.28, phaseoli 0.39, pinelliae 0.09, fructose 1.2 g/kg
Description: The 50 g of pueraria flower was finely chopped and extracted with 11 of water at 100° C. for 2.5 hours. The extract was filtered and lyophilized in a freeze dryer. The 10.7 g of the powder was obtained.
The phaseoli radiati semen and pinelliae tuber were extracted and lyophilized in the same manner as described for puerariae flos. The 14.6 g and 7 g of powder were obtained from phaseoli radiati semen and pinelliae tuber, respectively.
The powder of pueraria flower, phaseoli radiati semen, pinelliae tuber, and fructose were dissolved in an adquate volume of water and administered to rats fasted 18 to 24 hours at a dose of 0.28 g, 0.39 g, 0.09 g and 1.2 g/kg body weight, respectively. The rats were treated in the same manner as Test 2.

SMILES: O=C(CO)[C@@H](O)[C@H](O)[C@H](O)CO [Fructose]
- Alcohol concentration in blood (1 hr after 3 g/kg ethanol): 1.984 g/L
- Alcohol concentration in blood (2 hr after 3 g/kg ethanol): 1.654 g/L
- Alcohol concentration in blood (4 hr after 3 g/kg ethanol): 0.724 g/L
- Alcohol concentration in blood (6 hr after 3 g/kg ethanol): 0.325 g/L
